{"source": "patent US20060167005A1", "about": "“New therapeutic uses of (4-(2-fluorophenyl)-6-methyl-2-(1-piperazinyl) thieno [2,3-d] pyrimidine” (priority 2002, published 2006)", "key": {"[1]": {"tested_on": "rats", "experiment": "Transient middle cerebral artery occlusion model in rats", "type": "in vivo, rat", "settings": "30 mg/kg, for example 2 hours after onset of occlusion, vs vehicle-treated animals", "excerpt": "The effects of MCI-225 are studied in a transient middle cerebral artery occlusion model in rats (see Chen et al, 1999, J. Neurol. Sci. 171(1):24-30). In particular, effects on an array of functional measures are studied, including rotarod, adhesive-backed somatosensory and neurological scores."}, "[2]": {"tested_on": "adult female obese Zucker rats", "experiment": "Obesity and weight gain in obese Zucker rats over 32 days", "type": "in vivo, rat", "settings": "30 mg/kg orally once daily, vs vehicle group", "experimental": "MCI-225 is evaluated in adult female obese Zucker rats over a period of 32 days. A control group of 6 animals is dosed daily with vehicle alone whilst a second group of 6 weight-matched animals receives MCI-225 at 30 mg/kg given orally once daily. Food is available ad libitum, except on days 0, 7, 14, 21, 28 and 32 when food was removed from the animals at 7.30 am and animals weighed within 2 hours following removal of food. Food is supplied after weights of animals are measured."}, "[3]": {"tested_on": "ferret", "experiment": "Cisplatin-induced emesis in the ferret", "type": "in vivo", "settings": "30 mg/kg orally 1 hour prior to cisplatin, vs control animals", "excerpt": "The effects of MCI-225 are studied against cisplatin-induced emesis in the ferret (see Florczyk et al, 1982, Cancer Treat. Rep. 66(1):187-189). […] Efficacy against cisplatin predicts efficacy against radiation-induced nausea/vomiting."}, "[4]": {"tested_on": "rats", "experiment": "Nicotine withdrawal model using the acoustic startle reflex in rats", "type": "in vivo, rat", "settings": "for example 30 mg/kg/day following nicotine withdrawal (nicotine 6 mg/kg/day s.c. for 12 days)", "experimental": "The effects of MCI-225 are investigated in a model of nicotine withdrawal using the acoustic startle reflex in rats (see e.g. Helton et al, 1997, Neuropharmacology 36 (11-12):1511-1516). Nicotine (6 mg/kg/day) is administered for 12 days subcutaneously by osmotic minipumps. After 12 days, the pumps are removed and the animals allowed to go through spontaneous withdrawal. Cessation of chronic nicotine exposure leads to increased startle responses (sensorimotor reactivity) for 4 days following withdrawal."}, "[5]": {"tested_on": "alcohol-preferring rats", "experiment": "Alcohol intake in alcohol-preferring rats", "type": "in vivo, rat", "settings": "30 mg/kg/day orally over 4 consecutive days, vs vehicle", "experimental": "The effects of MCI-225 are determined in alcohol-preferring rats. Because of their pattern of drinking, these animals seem to represent a valid model of the human condition of alcoholism (McBride et al, 1990, Alcohol 7:199-205, Lankford et al, 1991, Pharmacol. Biochem. Behav., 8:293-299). After maximally preferred alcohol concentrations had stabilised for 4 days, MCI-225 at 30 mg/kg/day orally or vehicle was administered over 4 consecutive days."}}}
{"compound": "Cc1cc2c(-c3ccccc3F)nc(N3CCNCC3)nc2s1.Cl.O", "note": "[MCI-225]", "values": [{"measurement": "functional scores (rotarod, adhesive-backed somatosensory, neurological) following ischaemia", "setting": "[1]", "value": "improvement in one or more of the functional scores"}, {"measurement": "body weights", "setting": "[2]", "value": "lower body weights"}, {"measurement": "emetic response", "setting": "[3]", "value": "reduction in the emetic response"}, {"measurement": "enhanced auditory startle response following withdrawal of nicotine", "setting": "[4]", "value": "attenuation of the enhanced auditory startle response"}, {"measurement": "intake of alcohol in terms of absolute g/kg and/or proportion of alcohol to total fluid intake", "setting": "[5]", "value": "reduction in intake of alcohol"}]}
